One data set deals with Mycobacterium bovis BCG. The conditions noted are these: at least 0.25% by weight phthalaldehyde as the sole active ingredient, 20° C.; cited from earlier work.
The subject of data set [1] is Bacillus subtilis spores. Put plainly: Spore suspension test, killing of Bacillus subtilis spores. It counts as cell-based. The following applies: for Log Reduction/mL (20° C., 4 hrs): [NaHCO3], 0 mM; for Log Reduction/mL (3 hr, 20° C., pH = 8): Table 4B.
For data set [2] the following is noted: pH range of 3 to 9, single component, per the '999 patent; cited from earlier work.
Data set [3] in a line: Storage stability of phthalaldehyde solution (loss by Cannizzaro reaction). The following applies: stored about 11 weeks. It counts as physicochemical. The source says: Overall, the Cannizzaro reaction generally leads to loss of phthalaldehyde and a decrease in the germicidal efficacy of the solution. While a pH of from 6 to 10, or 7.5 to 9 generally enhances the efficacy of the phthalaldehyde-carbonate solution, the higher or alkaline pH also generally promotes the Cannizzaro reaction. […] However, about 14% of the phthalaldehyde may be lost if the same solution is stored for about 11 weeks at a pH of 9, at room temperature. Even more of the phthalaldehyde may be converted if the storage period is longer, if the temperature is higher, or if the pH is higher than 9.

In data set [4] the test system is Clostridium sporogenes spores. The conditions noted are these: cited from earlier work.
For data set [5] the following is noted: cited from earlier work.
Data set [6] relates to Bacillus subtilis spores. The conditions noted are these: cited from earlier work.
The procedure of data set [7]: A 100 mL round-bottom flask having a capacity of about 135 mL was equipped with a septum, a stirrer bar, and a pressure sensor. […] About 65 mL of a bicarbonate solution having a particular concentration and pH was injected into the flask. Excess pressure was released through a needle on the septum. Carbon dioxide was sparged through the solution to obtain the listed pH and then the solution was sealed in the container with a stopper. The solution was stirred at a temperature of about 20° C. until a stable pressure was achieved. The procedure was repeated for other air partial pressures and bicarbonate solutions. The experiments were conducted at sea level.

The conditions of data set [8]: Air in headspace. The procedure:
(§1) Experiments were conducted to determine the pressures of several bicarbonate solutions with different bicarbonate concentration, starting pH, and at different temperatures, with air initially in the headspace of the container. Several bicarbonate solutions of different concentration were prepared. The pH of the solutions were adjusted by sparging the solutions with carbon dioxide to achieve a starting pH. About 1030 mL of each solution was introduced into a different 1145 mL glass bottle that was equipped with a thermometer and a pressure sensor. The headspace of each bottle was flushed with air for about one minute and then the bottle was sealed with a stopper. […] The solutions were stirred at about 20° C. until all pressures stabilized. The pressures were recorded. The solutions were then heated in a water bath to 40° C., and then to 55° C., and the pressures were recorded at each of these temperatures. The experiments were conducted at sea level.

For data set [9] the following is noted: CO2 in headspace. The procedure: as §1
Experiments were conducted to determine the pressures of sealed containers including bicarbonate solutions when the air initially present in the headspace of the containers was replaced with carbon dioxide. […] The experiments were conducted at sea level.

Where [10] appears, read: Table 1, 20° C., 8 hr exposure, no pH control.
[11] abbreviates: Table 2, 20° C., 8 hr exposure, no pH control.
Where [12] appears, read: Table 3, 20° C., 8 hr exposure, no pH control.
[13] abbreviates: Table 3, 20° C., 24 hr exposure, no pH control.
Where [14] appears, read: 0.25% phthalaldehyde as the sole active ingredient, 20° C.
Where [15] appears, read: Table 2, 20° C., 4 hr exposure, no pH control.
Setting [16] is: Table 2, 20° C., 24 hr exposure, no pH control.

Each structure is given as a SMILES string. Read-outs that look alike come from different tables or passages of the source.

Take `O=Cc1ccccc1C=O` [0.3% OPA, 1,2-benzenedicarboxaldehyde]: the “time to kill all Mycobacterium bovis BCG in contact with the composition” value in the data set on Mycobacterium bovis BCG was at most 10 min. The “Log Reduction/mL (20° C.) 4 hr” value turned out to be 0.5 in the data set on Bacillus subtilis spores [1] (Table 1, 20° C., 4 hr exposure, no pH control) and 0.5 in the data set on Bacillus subtilis spores [1] (Table 4A, pH 7.0, 20° C., 4 hr). The “Log Reduction/mL (20° C.) 8 hr” value in the data set with Bacillus subtilis spores [1] (setting [10]) is 0.6; with Bacillus subtilis spores [1] (setting [11]), around 0.6; with Bacillus subtilis spores [1] (setting [12]), around 0.6; in the data set on Bacillus subtilis spores [1] (Table 4A, pH 7.0, 20° C., 8 hr) it was 0.6. Further, the “Log Reduction/mL (20° C.) 24 hr” value is 2.9 in the data set on Bacillus subtilis spores [1] (Table 1, 20° C., 24 hr exposure, no pH control); around 2.9 with Bacillus subtilis spores [1] (setting [13]); 2.9 with Bacillus subtilis spores [1] (Table 4A, pH 7.0, 20° C., 24 hr). Moreover, the “Log Reductions/mL (20° C.) 2 hr” value with Bacillus subtilis spores [1] (Table 7, 20° C., 2 hr) was 0.4. The “Log Reductions/mL (20° C.) 4 hr” value in the data set on Bacillus subtilis spores [1] (Table 7, 20° C., 4 hr) turned out to be 0.5; with Bacillus subtilis spores [1] (Table 10, 20° C., 4 hr), 1.5. Further, the “Log Reductions/mL (20° C.) 6 hr” value in the data set with Bacillus subtilis spores [1] (Table 7, 20° C., 6 hr) was 0.7. The “Log Reductions/mL (20° C.) 8 hr” value in the data set with Bacillus subtilis spores [1] (Table 7, 20° C., 8 hr) is listed as 0.6. Besides, the “Log Reductions/mL (20° C.) 24 hr” value in the data set with Bacillus subtilis spores [1] (Table 7, 20° C., 24 hr) was found to be 2.9; in the data set with Bacillus subtilis spores [1] (Table 10, 20° C., 24 hr), 2.9. Also, the “Log Reduction/mL (20° C., 4 hrs)” value was 0.5 with Bacillus subtilis spores [1] (Table 13, 20° C.); 0.5 with Bacillus subtilis spores [1] (Table 14, 20° C.); 0.5 in the data set on Bacillus subtilis spores [1] (Table 15, 20° C.). The “stability of compositions containing phthalaldehyde” value in data set [2] is on record as “excellent stability”. Besides, in data set [3] (pH of 7 or lower, room temperature to about 40° C.), the “loss of phthalaldehyde on storage” value is recorded as “without a noticeable loss”. Moreover, the “phthalaldehyde lost on storage” value in data set [3] (pH of 9, room temperature) is “about 14%”. The “time for sporicidal activity” value (in data set [4] (setting [14]); with Bacillus subtilis spores [6] (setting [14])) was 24 h each time. Further, the “time in which sterilization is achieved” value (in [4] (1.0% phthalaldehyde); in the data set with Bacillus subtilis spores [6] (1.0% phthalaldehyde)) was 10 h in each case. The solubility in water entry in data set [5] is “about 5 % by weight”.
Consider `[F-].[Li+]` [100 mM LiF, lithium fluoride], for which, in the data set with Bacillus subtilis spores [1] (setting [13]), the “Log Reduction/mL (20° C.) 24 hr” value worked out at 0.0.
With `[F-].[K+]` [1000 mM KF, potassium fluoride], in the data set with Bacillus subtilis spores [1] (setting [12]), the “Log Reduction/mL (20° C.) 8 hr” value is 0.0. The “Log Reduction/mL (20° C.) 24 hr” value with Bacillus subtilis spores [1] (setting [13]) came to 0.1. The “Log Reduction/mL (3 hr, 20° C., pH = 8)” value with Bacillus subtilis spores [1] (20° C.) stood at 0.
With `[I-].[K+]` [1000 mM KI, potassium iodide], the “Log Reduction/mL (3 hr, 20° C., pH = 8)” value with Bacillus subtilis spores [1] (20° C.) worked out at 0.
For `[Br-].[Na+]` [1000 mM NaBr, sodium bromide], the “Log Reduction/mL (20° C.) 4 hr” value in the data set with Bacillus subtilis spores [1] (setting [15]) is reported as 0.0. For the same compound, in the data set on Bacillus subtilis spores [1] (setting [16]), the “Log Reduction/mL (20° C.) 24 hr” value was 0.1.
With `[Cl-].[Na+]` [1000 mM NaCl, sodium chloride], the “Log Reduction/mL (20° C.) 24 hr” value in the data set with Bacillus subtilis spores [1] (setting [16]) was 0.2.
`[F-].[Na+]` [1000 mM NaF, sodium fluoride]: the “Log Reduction/mL (20° C.) 8 hr” value in the data set with Bacillus subtilis spores [1] (setting [10]) and with Bacillus subtilis spores [1] (setting [11]) was 0.0 in each case. Besides, in the data set on Bacillus subtilis spores [1] (setting [16]), the “Log Reduction/mL (20° C.) 24 hr” value is 0.0.
In the case of `[I-].[Na+]` [1000 mM Nal, sodium iodide], in the data set on Bacillus subtilis spores [1] (setting [15]), the “Log Reduction/mL (20° C.) 4 hr” value was 0.0. Also, the “Log Reduction/mL (20° C.) 8 hr” value with Bacillus subtilis spores [1] (setting [11]) is on record as 0.0. In the data set on Bacillus subtilis spores [1] (setting [16]), the “Log Reduction/mL (20° C.) 24 hr” value was determined as 0.1.
Consider `O=C([O-])O.[Na+]` [NaHCO3, sodium bicarbonate], for which the “Final Pressure at Equilibrium (mmHg)” value in [7] (initial air 440 / CO2 320 mmHg, NaHCO3 0.3 mole/L, pH 7.4, about 20° C.) came to 758 mmHg; in data set [7] (initial air 674 / CO2 86 mmHg, NaHCO3 0.3 mole/L, pH 8.0, about 20° C.) it was 760 mmHg; in [7] (initial air 726 / CO2 34 mmHg, NaHCO3 0.05 mole/L, pH 8.0, about 20° C.), 756 mmHg; in data set [7] (initial air 740 / CO2 20 mmHg, NaHCO3 0.05 mole/L, pH 7.4, about 20° C.) it was 758 mmHg. Moreover, the “Pressure Above Atmospheric Pressure (mmHg) 20° C.” value stood at 72 mmHg in data set [8] (pH 7.3, [NaHCO3] 0.02M); 250 mmHg in data set [8] (pH 7.4, [NaHCO3] 0.3M); 134 mmHg in [8] (pH 7.8, [NaHCO3] 0.3M). The “Pressure Above Atmospheric Pressure (mmHg) 40° C.” value was 208 mmHg in data set [8] (pH 7.3, [NaHCO3] 0.02M); 570 mmHg in data set [8] (pH 7.4, [NaHCO3] 0.3M); 322 mmHg in [8] (pH 7.8, [NaHCO3] 0.3M). For the same compound, the “Pressure Above Atmospheric Pressure (mmHg) 55° C.” value is listed as 378 mmHg in data set [8] (pH 7.3, [NaHCO3] 0.02M); 862 mmHg in data set [8] (pH 7.4, [NaHCO3] 0.3M); 542 mmHg in data set [8] (pH 7.8, [NaHCO3] 0.3M). The “Pressure Below (−) or Above (+) Atmospheric Pressure (mmHg) 20° C.” value in data set [9] (pH 7.2, [NaHCO3] 0.3M) is −158 mmHg; in data set [9] (pH 7.3, [NaHCO3] 0.02M), −508 mmHg; in data set [9] (pH 7.4, [NaHCO3] 0.3M) it was −290 mmHg; in [9] (pH 7.8, [NaHCO3] 0.3M) it was −440 mmHg. For the same compound, the “Pressure Below (−) or Above (+) Atmospheric Pressure (mmHg) 40° C.” value in data set [9] (pH 7.2, [NaHCO3] 0.3M) is 202 mmHg; in data set [9] (pH 7.3, [NaHCO3] 0.02M), −348 mmHg; in data set [9] (pH 7.4, [NaHCO3] 0.3M) it was 0 mmHg; in data set [9] (pH 7.8, [NaHCO3] 0.3M), −246 mmHg. The “Pressure Below (−) or Above (+) Atmospheric Pressure (mmHg) 55° C.” value in data set [9] (pH 7.2, [NaHCO3] 0.3M) is reported as 532 mmHg; in data set [9] (pH 7.3, [NaHCO3] 0.02M), −202 mmHg; in data set [9] (pH 7.4, [NaHCO3] 0.3M) it was 274 mmHg; in data set [9] (pH 7.8, [NaHCO3] 0.3M) it was −50 mmHg.

The record behind these values is patent US20050238732A1, “Carbonated germicide with pressure control” (priority 2003, published 2005).
